Literature values in patent US20170008834A1, “FUMARATE COMPOUNDS, PHARMACEUTICAL COMPOSITIONS THEREOF, AND METHODS OF USE” (priority 2015, published 2017).

Question: For `COC(=O)/C=C/C(=O)OC` [DMF, dimethylfumarate], which aqueous solubility is on record?
Answer: poor
